In patent publication US20030050302A1, “Treatment of conditions associated with amyloid processing using PKC activators” (Neurologic, Inc., priority 2000, published 2003):

Experiments:
[1] = system: sAPP; test: sAPP secretion in age-matched control fibroblasts (immunoblot densitometry)
Method: (§2) Human fibroblasts were obtained from the Coriell Cell Repositories (Camden N.J.). […] The culture medium was DMEM supplemented with 10% serum (FBS, Gibeo). PC12 cells were obtained from the American Cell Culture Collection and grown to confluence in T75 flasks containing DMEM supplemented with 5% FPS (Gibeo), 10% horse serum (Biofluids) and 1% of a mixture of penicillin (5000 units/ml in G sodium) and streptomycin (5000 μg/ml).
(§3) Complete culture medium was removed just prior to experiments.
(§4) After two hours of incubation, the supernatant was removed and the secreted proteins were precipitated with 10% TCA and resuspended in Tris-glycine SDS electrophoresis sample buffer (Novex). The samples were boiled for 5 min, subjected to electrophoresis and later to immunoblotting for identification of sAPP.
(§5) Conventional immunoblotting techniques were employed. […] The volume of sample loaded was corrected for total cell protein per flask. Proteins were transferred electrophoretically to nitrocellulose membranes. The membranes were saturated with Blotto blocker (Pierce) and incubated overnight at 4° C. with 1:500 6E10 monoclonal antibody from Senetek. After washing, the membranes were incubated for 1 h at room temperature with the secondary antibody, alkaline phosphatase anti-mouse. IfG (Vector Laboratories) and developed using a BCIP/NBT subtrate kit (Vector Laboratories). The bands were quantitated by densitometric analyses (NIH Image, version 1.6) after obtaining a digital image of each membrane.

[2] = system: fibroblasts from AD patients; test: TEA-induced [Ca2+] elevation (calcium imaging) in AD fibroblasts
Method: (§6) The culture medium in which cells were grown was Dulbecco's modified Eagle's medium (GIBCO) supplemented with 10% fetal calf serum (Biofluids, Inc.).
(§7) Round, 25-mm glass coverslips were flame-polished and placed inside 35-mm Nunc petri dishes. Cells were seeded (ca. 10-15 cells/mm^2) in these petri dishes and used when cell density was equivalent for all cell lines (ca 180 cells/mm^2). […] Briefly, culture medium was removed and cells were washed at least three times with basal salt solution (BSS; in mM: NaCl 140, KCl 5, CaCl2 2.5, MgCl2 1.5, Hepes 10, glucose 5, pH 7.4). The fluorescent probe was loaded by incubating cells in 1 μM fura 2-AM (Molecular Probes) in 1 ml BSS at room temperature (RT). One hour later, cells were washed thoroughly with BSS and 1 ml of fresh BSS was added for [Ca^2+] baseline measurements. […] A 40× Zeiss Fluor (oil immersion) objective lens was used.
A group of cells was treated with the PKC activator benzolactam prior to the TEA challenge. BL was dissolved in dimethyl sulfoxide (DMSO; Sigma) to achieve a final testing concentration of 50 nM when 1 ml of the dissolved BL was added to the dish 1 minute prior to TEA application. […] Seven to ten petri dishes of cells were tested from each cell line for each experimental condition. In almost all the cell lines, a minimum of 100 cells were tested per treatment per cell line (total 9231 cells). There were only three AC cell lines for which the number of cells in a couple of treatment groups was above 65 but below 100. Experiments for each cell line were repeated on at least one separate occasion (minimum 1-week interval). Response in a given cell was characterized as a double-fold increase in baseline [Ca^2+]

[3] = system: sAPP; test: sAPP secretion in AD fibroblasts (immunoblot densitometry)
Method: as §2, §3, §4, §5

[4] = system: sAPP; test: sAPP secretion in PC12 cells (immunoblot densitometry); conditions: for sAPP secretion vs basal level: 10 μM
Method: as §2, §3, §4, §5

[5] = biological target: PKC δ (Homo sapiens, UniProt Q05655); conditions: δ isoform vs α; cited from earlier work
Sequence of PKC δ (Q05655 whole entry, canonical isoform): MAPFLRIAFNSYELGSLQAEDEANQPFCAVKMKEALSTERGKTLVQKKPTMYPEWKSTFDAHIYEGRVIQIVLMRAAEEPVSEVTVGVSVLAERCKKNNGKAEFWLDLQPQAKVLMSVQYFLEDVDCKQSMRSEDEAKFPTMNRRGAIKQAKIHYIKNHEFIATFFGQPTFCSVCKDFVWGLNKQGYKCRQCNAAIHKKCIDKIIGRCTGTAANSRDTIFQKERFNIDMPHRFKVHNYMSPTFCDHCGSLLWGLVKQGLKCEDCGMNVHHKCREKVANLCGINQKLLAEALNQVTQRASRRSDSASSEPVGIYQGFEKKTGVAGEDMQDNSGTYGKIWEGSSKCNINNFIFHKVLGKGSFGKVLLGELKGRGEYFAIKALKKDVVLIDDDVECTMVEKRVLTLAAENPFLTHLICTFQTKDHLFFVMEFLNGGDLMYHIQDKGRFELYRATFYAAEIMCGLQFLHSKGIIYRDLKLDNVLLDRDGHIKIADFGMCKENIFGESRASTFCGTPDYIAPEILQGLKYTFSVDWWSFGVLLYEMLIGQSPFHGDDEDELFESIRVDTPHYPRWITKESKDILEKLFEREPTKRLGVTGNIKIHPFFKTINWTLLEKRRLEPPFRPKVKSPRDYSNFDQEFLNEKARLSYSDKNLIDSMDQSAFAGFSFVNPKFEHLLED

[6] = biological target: T1, PKC α isoform (Homo sapiens, UniProt P17252); test: Immunoblot of PKC α translocation cytosol to membrane in AC cell lines; type: cell-based; design: endogenous in cells; host or cells: human skin fibroblast lines from AC controls; conditions: AC cells, 50 nM
Method: (§1) Cells were grown to confluency (˜90%) in t-75 flasks. […] Fibroblasts were washed twice with ice-cold PBS, scraped in PBS, and collected by low-speed centrifugation. The pellets were resuspended in the following homogenization buffer: 20 mM Tris-HCl, pH 7.5, 2 mM EDTA, 2 mM EGTA, 5 mM DTT, 0.32 M sucrose, 2 mM PMSF, 25 μg/ml leupeptin. Homogenates were immersed in liquid nitrogen, thawed, and centrifuged at 12,000 g for 20 minutes, and the supernatants were used as the cytosolic fraction. The pellets were homogenized in the same buffer containing 1.0% Triton X-100, incubated in ice for 45 minutes, and centrifuged at 12,000 g for 30 minutes. The supernatant from this batch was used as the membranous fraction. […] The membrane was saturated with Blotto blocker (Pierce) by incubating it at RT for an hour. The primary antibody for PKC α isoform (Transduction Laboratories) was diluted (1:1000) in blocking solution and incubated with the membrane for 1 hour at RT. After incubation with the secondary antibody, alkaline phosphatasae antimouse IgG (Vector Laboratories), the membrane was developed using an alkaline phosphatase kit (Vector Laboratories) as per the manufacturer's instructions. The conditions for developing the membranes were kept as similar as possible. […]

[7] = biological target: T2, PKC ε (Homo sapiens, UniProt Q02156); conditions: ε isoform vs α; cited from earlier work
T2 sequence (Q02156 1-737): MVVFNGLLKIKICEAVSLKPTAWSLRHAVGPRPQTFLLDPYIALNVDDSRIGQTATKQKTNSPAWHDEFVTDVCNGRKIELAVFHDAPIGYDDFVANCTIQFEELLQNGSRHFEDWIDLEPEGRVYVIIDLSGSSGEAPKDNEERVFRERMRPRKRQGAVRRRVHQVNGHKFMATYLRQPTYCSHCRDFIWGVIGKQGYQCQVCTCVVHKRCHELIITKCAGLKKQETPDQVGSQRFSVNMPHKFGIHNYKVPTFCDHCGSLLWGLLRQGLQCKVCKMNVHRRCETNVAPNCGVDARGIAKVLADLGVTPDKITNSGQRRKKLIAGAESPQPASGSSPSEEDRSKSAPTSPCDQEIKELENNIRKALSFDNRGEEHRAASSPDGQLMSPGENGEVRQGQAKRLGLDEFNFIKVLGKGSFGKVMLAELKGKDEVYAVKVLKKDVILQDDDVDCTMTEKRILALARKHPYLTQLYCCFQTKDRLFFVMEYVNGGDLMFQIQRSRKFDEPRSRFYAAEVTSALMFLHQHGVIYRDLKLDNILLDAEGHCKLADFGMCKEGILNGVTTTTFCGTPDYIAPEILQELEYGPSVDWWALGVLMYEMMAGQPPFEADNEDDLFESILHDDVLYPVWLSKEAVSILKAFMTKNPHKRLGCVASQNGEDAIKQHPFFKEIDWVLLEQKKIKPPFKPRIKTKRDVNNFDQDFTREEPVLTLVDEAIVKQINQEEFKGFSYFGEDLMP

[8] = biological target: T1, PKC α isoform; test: Immunoblot of PKC α translocation cytosol to membrane in AD cell lines; type: cell-based; design: endogenous in cells; host or cells: human skin fibroblast lines from AD patients and AC controls; conditions: 50 nM
Method: as §1

[9] = rats, personal communication; cited from earlier work
[10] = system: 113 pS TEA-sensitive K+ channel; test: Patch-clamp single-channel recording in AD cell line AG06848; type: cell-based, human
Method: Patch-claim experiments were performed on 13 separate replicate representative experiments in a well-characterized AD cell line (AG06848) which is normally silent for the 113 pS TEA-sensitive K^+ channel (Etcheberrigaray et al., 1993). The experiment was performed at room temperature (21-23° C.) following standard procedures (Sakmann & Neher, 1983). The culture medium was replaced with the following solution (mM, NaCl 150, KCl 5, CaCl2 2, MgCl2 1, Hepes (NaOH) 10, pH 7.4, prior to recording. Benzolactam was added to a dish after ensuring that the patch is silent for the II 3 pS K^+ channel. The recording electrodes, filled with a high-K^+ solution (mM), KCl 140, CaCl2 2, MgCl2 1, Hepes (NaOH) 10, pH 7.4, were made from Blu Tip capillary tubes (i.d. 1.1-1.2 mm; Oxford Labware) by using a BB-CH-PC Mecanex puller to obtain pipette resistances that were ˜6 MΩ. An Axopath-IC amplifier was used to obtain records and a JVC Vetter PCM videorecorder was used to store the data on tape. The data were acquired and analyzed on a personal computer with a pClamp suite of programs by transferring the information via an Axolab interface from the amplifier. All three components-amplifier, interface, and software-were obtained from Axon Instruments (Foster City, Calif.).

[11] = system: age-matched control (AC) fibroblasts; test: TEA-induced [Ca2+] elevation (calcium imaging) in age-matched control (AC) fibroblasts; conditions: 50 nM, 1 minute
Method: as §6, §7
A group of cells was treated with the PKC activator benzolactam prior to the TEA challenge. BL was dissolved in dimethyl sulfoxide (DMSO; Sigma) to achieve a final testing concentration of 50 nM when 1 ml of the dissolved BL was added to the dish 1 minute prior to TEA application. […] Seven to ten petri dishes of cells were tested from each cell line for each experimental condition. In almost all the cell lines, a minimum of 100 cells were tested per treatment per cell line (total 9231 cells). […]

For `CCCC(=O)O[C@@H]1[C@@H](C)[C@@]2(O)[C@@H](C=C(CO)C[C@]3(O)C(=O)C(C)=C[C@@H]23)[C@@H]2C(C)(C)[C@]12OC(=O)CCC` [PDBu, phorbol 12,13-dibutyrate], the “sAPP secretion vs basal” value ([1]; age-matched control cell lines, 0.5, 1 and 10 μM) was “statistical significance was not reached”, the “TEA response vs 4α-PHR-treated cells” value ([2]; AD cells, 50 nM, 45 minutes) was “did not differ” and the “TEA response, shorter incubation times” value ([2]; AD cells, 1 and 15 minutes incubation) was “without effect”. For the same compound, the “sAPP secretion vs basal” value ([3]; AD cell lines, 0.5 μM, 2 h) was “maximal at 500 nM” and the “sAPP secretion vs basal” value ([3]; AD cell lines, 0.5, 1 and 10 μM, 2 h) was “statistically significant increases”.

In the case of `CCCCCCCCCCCC(=O)Oc1ccc([C@H]2[C@@H](C(C)C)C(=O)N[C@@H]2CO)c2ccccc12` [LQ12], the “sAPP secretion vs basal level” value [4] is reported as “significantly increased”.

For `CN[C@@H]1C[C@H]2O[C@@](C)([C@@H]1OC)n1c3ccccc3c3c4c(c5c6ccccc6n2c5c31)C(=O)NC4` [staurosporine], the “sAPP secretion, staurosporine alone” value ([1]; age-matched control cell lines) was “without effect”, the “effect on increase in sAPP secretion caused by 10 μM BL” value ([1]; age-matched control cell lines, 0.5 μM staurosporine pretreatment) was “effective in preventing” and the “effect on BL-induced sAPP secretion” value ([3]; AD cell lines, 0.5 μM staurosporine 30 min prior to BL) was “completely prevented”. The “effect on phorbol (PDBu)-induced sAPP secretion” value ([3]; staurosporine pretreatment, data not shown) was “significantly reduced”.

For `CCCCCCCCC#Cc1ccc2c(c1)C[C@@H](CO)NC(=O)[C@H](C(C)C)N2C` [BL, (2S, 5S)-8-(1′-decynyl)benzolactam], the “affinity lower than for PKC α” value [5] is given as “at least 10 fold”, the “percentage of cells responding to TEA vs untreated and DMSO-treated controls” value ([2]; AD cell lines, 50 nM, 1 minute) is given as “significantly increased” and the “percentage of cells responding to TEA” value ([2]; AD cells treated with BL (50 nM, 1 minute) before 100 mM TEA) is given as 19.58%. For the same compound, the “sAPP secretion vs basal” value ([3]; AD cell lines, 0.5 μM, 2 h) was “did not reach statistical significance”, the “sAPP secretion vs basal, post test significance” value ([3]; AD cell lines, 1 μM, 2 h) was “significance level of p<0.001” and the “sAPP secretion over basal” value ([3]; AD cell lines, 10 μM, 2 h) was “almost three-fold increase”. For the same compound, the “PKC translocation vs basal levels” value ([6]; 1 minute) was “ns”, the “PKC α particulate/soluble ratio” value ([6]; 15 minutes) was 1.72 and the “affinity lower than for PKC α” value [7] was “at least 10 fold”. The “redistribution of PKC α from cytosol to membrane vs basal ratio” value ([8]; 1 minute) was “pronounced redistribution”, the “PKC α particulate/soluble ratio” value ([8]; 15 minutes) was 1.156 and the antitumoral activity [9] was “shows antitumoral activity”. For the same compound, the “K+ channel activity after BL activation” value ([10]; AD cell line AG06848, 1 minute BL treatment) was 54%, the “cells showing unambiguous 113 pS K+ channel” value ([10]; of 13 recordings silent before BL, 1 minute BL treatment) was 7 and the “percentage of response to TEA vs untreated or DMSO-treated cells” value [11] was “did not differ”. For the same compound, the sAPP secretion [4] was ~3 fold and the “sAPP secretion vs basal level” value [4] was “significantly increased”.
